The text below walks through data of patent publication US8450332B2, “LIMK2 inhibitors, compositions comprising them, and methods of their use” (Lexicon Pharmaceuticals, Inc., priority 2008, dated 2013).

The target of this assay is T1, LIMK2 (Homo sapiens, UniProt P53671).
T1 construct: His tag (histidine-tagged; pFastBacHT vector); made in house; host or cells: Sf9 insect cells (BAC-to-BAC baculovirus system)
In words: In vitro LIMK2 inhibition assay (33P incorporation into myelin basic protein flash plates). The assay is classed as biochemical. How it is done: Using the procedures described herein and methods known in the art, the additional compounds listed below in Table 1 were prepared. The LIMK2 IC50 data that is provided below for some of the compounds was determined using the assay described in Example 32.
An in vitro assay used to identify LIMK2 inhibitors was developed. The analytical readout was the incorporation of ^33P from ATP substrate into immobilized myelin basic protein coated flash plates (Perkin Elmer Biosciences), which were counted on a scintillation counter equipped with a plate reader (TopCount, Packard Bioscience, Meriden, Conn.). Using 384 well flat MBP flashplates, total assay volume was 50 μl. The HTS program utilized a Biomek FX for dilution.
For each assay, the ingredients and conditions were as follows: 200 ng of enzyme was incubated in assay buffer (1× assay buffer contains 30 mM HEPES (pH 8.0), 5 mM DTT, and 10 mM MgCl2), 10 μM ATP, 0.2 μCi [gamma-^33P]-ATP and 10 μM of potential inhibitory compound. The reaction was incubated at room temperature for 60 minutes, washed 3 times with 75 μl of stop/wash buffer (1× stop/was buffer contains 50 mM EDTA and 20 mM Tris (pH 7.4)), and then the plates were read on the scintillation counter. Different concentrations of staurosporine (400 nM, 200 nM, 100 nM and 50 nM; purchased from BIOMOL (Plymouth Meeting, Pa.)) were used as controls on each plate.

Molecules are shown by their SMILES. Bounds are passed on as bounds.

T1 sequence (P53671 whole entry): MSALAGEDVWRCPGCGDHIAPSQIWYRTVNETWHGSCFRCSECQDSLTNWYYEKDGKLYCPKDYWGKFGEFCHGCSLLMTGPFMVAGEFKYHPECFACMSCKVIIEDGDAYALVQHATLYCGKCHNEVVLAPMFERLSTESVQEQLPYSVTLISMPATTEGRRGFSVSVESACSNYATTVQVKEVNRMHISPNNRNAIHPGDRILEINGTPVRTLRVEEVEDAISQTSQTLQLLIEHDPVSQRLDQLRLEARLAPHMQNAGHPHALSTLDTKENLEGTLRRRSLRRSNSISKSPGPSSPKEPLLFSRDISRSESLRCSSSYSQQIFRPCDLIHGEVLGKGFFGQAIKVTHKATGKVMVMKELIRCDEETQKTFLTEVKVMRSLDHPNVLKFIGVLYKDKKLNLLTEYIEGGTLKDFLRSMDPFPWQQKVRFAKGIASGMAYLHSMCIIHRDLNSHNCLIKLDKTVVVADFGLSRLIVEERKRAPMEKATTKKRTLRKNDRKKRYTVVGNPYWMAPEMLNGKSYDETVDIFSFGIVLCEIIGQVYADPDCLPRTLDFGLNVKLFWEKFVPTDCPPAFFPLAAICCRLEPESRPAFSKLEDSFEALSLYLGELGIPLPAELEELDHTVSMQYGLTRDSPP

`Cc1c[nH]c2ncnc(N3CCC(CCN4CCOCC4)(C(=O)Nc4cccc(OC(=O)N(C)C)c4)CC3)c12` [3-(1-(5-methyl-7H-pyrrolo[2,3-d]pyrimidin-4-yl)-4-(2-morpholinoethyl)piperidine-4-carboxamido)phenyl dimethylcarbamate]: the half-maximal inhibitory concentration (IC50) is less than 250 nM.

Compound `Cc1c[nH]c2ncnc(N3CCC(C(=O)Nc4cccc(OC(=O)N(C)C)c4)(c4nn[nH]n4)CC3)c12` [3-(1-(5-methyl-7H-pyrrolo[2,3-d]pyrimidin-4-yl)-4-(2H-tetrazol-5-yl)piperidine-4-carboxamido)phenyl dimethylcarbamate] registered a half-maximal inhibitory concentration (IC50) of less than 250 nM.

Compound `Cc1c[nH]c2ncnc(N3CCC(CNC(=O)N4CCOCC4)(C(=O)Nc4cccc(OC(=O)N(C)C)c4)CC3)c12` [3-(1-(5-methyl-7H-pyrrolo[2,3-d]pyrimidin-4-yl)-4-((morpholine-4-carboxamido)methyl)piperidine-4-carboxamido)phenyl dimethylcarbamate] displayed a half-maximal inhibitory concentration (IC50) of less than 250 nM.

`Cc1c[nH]c2ncnc(N3CCC(CNS(N)(=O)=O)(C(=O)Nc4cccc(OC(=O)N(C)C)c4)CC3)c12` [3-(1-(5-methyl-7H-pyrrolo[2,3-d]pyrimidin-4-yl)-4-((sulfamoylamino)methyl)piperidine-4-carboxamido)phenyl dimethylcarbamate] returned an IC50 of less than 250 nM.

Compound `Cc1c[nH]c2ncnc(N3CCC(CNS(C)(=O)=O)(C(=O)Nc4cccc(OC(=O)N(C)C)c4)CC3)c12` [3-(1-(5-methyl-7H-pyrrolo[2,3-d]pyrimidin-4-yl)-4-(methylsulfonamidomethyl)piperidine-4-carboxamido)phenyl dimethylcarbamate] returned a 50% inhibitory concentration (IC50) of less than 250 nM.

`Cc1c[nH]c2ncnc(N3CCC(CN4CCOCC4)(C(=O)Nc4cccc(OC(=O)N(C)C)c4)CC3)c12` [3-(1-(5-methyl-7H-pyrrolo[2,3-d]pyrimidin-4-yl)-4-(morpholinomethyl)piperidine-4-carboxamido)phenyl dimethylcarbamate]: the half-maximal inhibitory concentration (IC50) was less than 250 nM.

In turn, `Cc1c[nH]c2ncnc(N3CCC(CNC(N)=O)(C(=O)Nc4cccc(OC(=O)N(C)C)c4)CC3)c12` [3-(1-(5-methyl-7H-pyrrolo[2,3-d]pyrimidin-4-yl)-4-(ureidomethyl)piperidine-4-carboxamido)phenyl dimethylcarbamate] came in with a half-maximal inhibitory concentration (IC50) of less than 250 nM.

Compound `CCCC1(C(=O)Nc2cccc(OC(=O)N(C)C)c2)CCN(c2ncnc3[nH]cc(C)c23)CC1` [3-(1-(5-methyl-7H-pyrrolo[2,3-d]pyrimidin-4-yl)-4-propylpiperidine-4-carboxamido)phenyl dimethylcarbamate] registered an IC50 of less than 250 nM.

As to `Cc1c[nH]c2ncnc(N3CCC(NCCOCc4ccccc4)(C(=O)Nc4cccc(OC(=O)N(C)C)c4)CC3)c12` [3-(4-(2-(benzyloxy)ethylamino)-1-(5-methyl-7H-pyrrolo[2,3-d]pyrimidin-4-yl)piperidine-4-carboxamido)phenyl dimethylcarbamate], the IC50 is less than 250 nM.

In turn, `Cc1c[nH]c2ncnc(N3CCC(NCCNC(=O)OC(C)(C)C)(C(=O)Nc4cccc(OC(=O)N(C)C)c4)CC3)c12` [3-(4-(2-(tert-butoxycarbonylamino)ethylamino)-1-(5-methyl-7H-pyrrolo[2,3-d]pyrimidin-4-yl)piperidine-4-carboxamido)phenyl dimethylcarbamate] yielded a half-maximal inhibitory concentration (IC50) of less than 250 nM.

Compound `Cc1c[nH]c2ncnc(N3CCC(NCCN)(C(=O)Nc4cccc(OC(=O)N(C)C)c4)CC3)c12` [3-(4-(2-aminoethylamino)-1-(5-methyl-7H-pyrrolo[2,3-d]pyrimidin-4-yl)piperidine-4-carboxamido)phenyl dimethylcarbamate] came in with an IC50 of less than 250 nM.

The compound `Cc1c[nH]c2ncnc(N3CCC(NCCO)(C(=O)Nc4cccc(OC(=O)N(C)C)c4)CC3)c12` [3-(4-(2-hydroxyethylamino)-1-(5-methyl-7H-pyrrolo[2,3-d]pyrimidin-4-yl)piperidine-4-carboxamido)phenyl dimethylcarbamate] yielded a 50% inhibitory concentration (IC50) of less than 250 nM.

`Cc1c[nH]c2ncnc(N3CCC(CNC(=O)C4(N)CC4)(C(=O)Nc4cccc(OC(=O)N(C)C)c4)CC3)c12` [3-(4-((1-aminocyclopropanecarboxamido)methyl)-1-(5-methyl-7H-pyrrolo[2,3-d]pyrimidin-4-yl)piperidine-4-carboxamido)phenyl dimethylcarbamate] showed an IC50 of less than 250 nM.

For the compound `Cc1c[nH]c2ncnc(N3CCC(CNC(=O)c4cnn(C)c4)(C(=O)Nc4cccc(OC(=O)N(C)C)c4)CC3)c12` [3-(4-((1-methyl-1H-pyrazole-4-carboxamido)methyl)-1-(5-methyl-7H-pyrrolo[2,3-d]pyrimidin-4-yl)piperidine-4-carboxamido)phenyl dimethylcarbamate], the half-inhibitory concentration (IC50) is less than 250 nM.

`Cc1c[nH]c2ncnc(N3CCC(CNC(=O)C4(NC(=O)OC(C)(C)C)CC4)(C(=O)Nc4cccc(OC(=O)N(C)C)c4)CC3)c12` [3-(4-((1-tert-butoxycarbonylaminocyclopropanecarboxamido)methyl)-1-(5-methyl-7H-pyrrolo[2,3-d]pyrimidin-4-yl)piperidine-4-carboxamido)phenyl dimethylcarbamate] yielded an IC50 of less than 250 nM.

The compound `Cc1c[nH]c2ncnc(N3CCC(Cc4ncc[nH]4)(C(=O)Nc4cccc(OC(=O)N(C)C)c4)CC3)c12` [3-(4-((1H-imidazol-2-yl)methyl)-1-(5-methyl-7H-pyrrolo[2,3-d]pyrimidin-4-yl)piperidine-4-carboxamido)phenyl dimethylcarbamate] yielded an IC50 of less than 250 nM.

Compound `Cc1c[nH]c2ncnc(N3CCC(Cc4nnn[nH]4)(C(=O)Nc4cccc(OC(=O)N(C)C)c4)CC3)c12` [3-(4-((1H-tetrazol-5-yl)methyl)-1-(5-methyl-7H-pyrrolo[2,3-d]pyrimidin-4-yl)piperidine-4-carboxamido)phenyl dimethylcarbamate] had a concentration for half-maximal inhibition (IC50) of less than 250 nM.

For the compound `Cc1c[nH]c2ncnc(N3CCC(CNC(=O)CC4NC(=O)NC4=O)(C(=O)Nc4cccc(OC(=O)N(C)C)c4)CC3)c12` (stereo not drawn) [3-(4-((2-(2,5-dioxoimidazolidin-4-yl)acetamido)methyl)-1-(5-methyl-7H-pyrrolo[2,3-d]pyrimidin-4-yl)piperidine-4-carboxamido)phenyl dimethylcarbamate], the IC50 was less than 250 nM.

For `COCCOCC(=O)NCC1(C(=O)Nc2cccc(OC(=O)N(C)C)c2)CCN(c2ncnc3[nH]cc(C)c23)CC1` [3-(4-((2-(2-methoxyethoxy)acetamido)methyl)-1-(5-methyl-7H-pyrrolo[2,3-d]pyrimidin-4-yl)piperidine-4-carboxamido)phenyl dimethylcarbamate], the IC50 was less than 250 nM.

Turning to `Cc1c[nH]c2ncnc(N3CCC(CNC(=O)CN(C)C)(C(=O)Nc4cccc(OC(=O)N(C)C)c4)CC3)c12` [3-(4-((2-(dimethylamino)acetamido)methyl)-1-(5-methyl-7H-pyrrolo[2,3-d]pyrimidin-4-yl)piperidine-4-carboxamido)phenyl dimethylcarbamate], the half-maximal inhibitory concentration (IC50) was less than 250 nM.

With `Cc1c[nH]c2ncnc(N3CCC(CNC(=O)CN)(C(=O)Nc4cccc(OC(=O)N(C)C)c4)CC3)c12` [3-(4-((2-aminoacetamido)methyl)-1-(5-methyl-7H-pyrrolo[2,3-d]pyrimidin-4-yl)piperidine-4-carboxamido)phenyl dimethylcarbamate], the IC50 was less than 250 nM.

With `COCC(=O)NCC1(C(=O)Nc2cccc(OC(=O)N(C)C)c2)CCN(c2ncnc3[nH]cc(C)c23)CC1` [3-(4-((2-methoxyacetamido)methyl)-1-(5-methyl-7H-pyrrolo[2,3-d]pyrimidin-4-yl)piperidine-4-carboxamido)phenyl dimethylcarbamate], the 50% inhibitory concentration (IC50) is less than 250 nM.

With `Cc1c[nH]c2ncnc(N3CCC(CNC(=O)C(C)(CO)CO)(C(=O)Nc4cccc(OC(=O)N(C)C)c4)CC3)c12` [3-(4-((3-hydroxy-2-(hydroxymethyl)-2-methylpropanamido)methyl)-1-(5-methyl-7H-pyrrolo[2,3-d]pyrimidin-4-yl)piperidine-4-carboxamido)phenyl dimethylcarbamate], the concentration for half-maximal inhibition (IC50) was less than 250 nM.

As to `COCCC(=O)NCC1(C(=O)Nc2cccc(OC(=O)N(C)C)c2)CCN(c2ncnc3[nH]cc(C)c23)CC1` [3-(4-((3-methoxypropanamido)methyl)-1-(5-methyl-7H-pyrrolo[2,3-d]pyrimidin-4-yl)piperidine-4-carboxamido)phenyl dimethylcarbamate], the half-inhibitory concentration (IC50) was less than 250 nM.

The compound `Cc1cc(C(=O)NCC2(C(=O)Nc3cccc(OC(=O)N(C)C)c3)CCN(c3ncnc4[nH]cc(C)c34)CC2)n[nH]1` [3-(4-((5-methyl-1H-pyrazole-3-carboxamido)methyl)-1-(5-methyl-7H-pyrrolo[2,3-d]pyrimidin-4-yl)piperidine-4-carboxamido)phenyl dimethylcarbamate] returned an IC50 of less than 250 nM.

Turning to `Cc1c[nH]c2ncnc(N3CCC(CNS(=O)(=O)N(C)C)(C(=O)Nc4cccc(OC(=O)N(C)C)c4)CC3)c12` [3-(4-((N,N-dimethylsulfamoylamino)methyl)-1-(5-methyl-7H-pyrrolo[2,3-d]pyrimidin-4-yl)piperidine-4-carboxamido)phenyl dimethylcarbamate], the half-inhibitory concentration (IC50) was less than 250 nM.

`Cc1c[nH]c2ncnc(N3CCC(Cc4nnnn4Cc4ccccc4)(C(=O)Nc4cccc(OC(=O)N(C)C)c4)CC3)c12` [3-(4-((l-benzyl-1H-tetrazol-5-yl)methyl)-1-(5-methyl-7H-pyrrolo[2,3-d]pyrimidin-4-yl)piperidine-4-carboxamido)phenyl dimethylcarbamate] yielded an IC50 of less than 250 nM.

For orientation: IC50 means the concentration needed to halve the response being measured.
